System: RS411 cells
Assay: Cell Viability CTG Assay (CellTiter Glo) in RS411 cells
Type: cell-based
Conditions: Homo sapiens, RS4-11, 24 h, duration 1 day
Method in brief: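 Read-out was CellTiter Glo luminescence, taken after 10 min at RT, following 1-4 days of incubation at 37 °C, 5% CO2. Cells were plated at 1000 per well with an 11-point, 3-fold series starting at 10 μM final in 0.2% DMSO. IC50 values are given as letter-code ranges.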

IC50 | SMILES
< 50 nM | CN1[C@@H](C(=O)NC23CCC(C(=O)N4CCC(C#Cc5ccc6c(c5)n(C)c(=O)n6C5CCC(=O)NC5=O)CC4)(CC2)CC3)[C@H](c2cccc(Cl)c2F)[C@]2(C(=O)Nc3cc(Cl)ccc32)C12CCCCC2 (stereo partly drawn) [I-130, (3′R,4'S,5′R)-6″-chloro-4′-(3-chloro-2-fluorophenyl)-N-(4-(4-((1-(2,6-dioxopiperidin-3-yl)-3-methyl-2-oxo-2,3-dihydro-1H-benzo[d]imidazol-5-yl)ethynyl)piperidine-1-carbonyl)bicyclo[2.2.2]octan-1-yl)-1′-methyl-2″-oxodispiro[cyclohexane-1,2′-pyrrolidine-3′,3″-indoline]-5′-carboxamide]
50 to 100 nM | CCN1[C@@H](C(=O)NC23CCC(CN(C)CCCCCc4ccc5c(c4)n(C)c(=O)n5C4CCC(=O)NC4=O)(CC2)CC3)[C@H](c2cccc(Cl)c2F)[C@]2(C(=O)Nc3cc(Cl)ccc32)C12CCCCC2 (stereo partly drawn) [I-131, (3′R,4'S,5′R)-6″-chloro-4′-(3-chloro-2-fluorophenyl)-N-(4-(((5-(1-(2,6-dioxopiperidin-3-yl)-3-methyl-2-oxo-2,3-dihydro-1H-benzo[d]imidazol-5-yl)pentyl)(methyl)amino)methyl)bicyclo[2.2.2]octan-1-yl)-1′-ethyl-2″-oxodispiro[cyclohexane-1,2′-pyrrolidine-3′,3″-indoline]-5′-carboxamide]
< 50 nM | O=C1CCC(N2Cc3c(C#CC4CCN(C(=O)[C@H]5CC[C@H](NC(=O)[C@@H]6NC7(CCCCC7)[C@@]7(C(=O)Nc8cc(Cl)ccc87)[C@H]6c6cccc(Cl)c6F)CC5)CC4)cccc3C2=O)C(=O)N1 (stereo partly shown) [I-134]
> 1000 nM | CC(C)(C)C[C@@H]1N[C@@H](C(=O)N[C@H]2CC[C@H](CN3CCC(C#Cc4ccn5c(N6CCC(=O)NC6=O)cnc5c4)CC3)CC2)[C@H](c2cccc(Cl)c2F)[C@@]1(C#N)c1ccc(Cl)cc1F [I-135]
< 50 nM | Cn1c(=O)n(C2CCC(=O)NC2=O)c2ccc(C#CCCN3CCN(C(=O)[C@H]4CC[C@H](NC(=O)[C@@H]5NC6(CCCCC6)[C@@]6(C(=O)Nc7cc(Cl)ccc76)[C@H]5c5cccc(Cl)c5F)CC4)CC3)cc21 (stereo partly shown) [I-136]
< 50 nM | Cn1c(=O)n(C2CCC(=O)NC2=O)c2cccc(C3CCN(C(=O)[C@H]4CC[C@H](NC(=O)[C@@H]5NC6(CCC(C)(C)CC6)[C@@]6(C(=O)Nc7cc(Cl)ccc76)[C@H]5c5cccc(Cl)c5F)CC4)CC3)c21 (stereo partly shown) [I-137]
> 1000 nM | Cn1c(=O)n(C2CCC(=O)NC2=O)c2ccc(CCC3CCN(CCNC(=O)[C@@H]4NC5(CCCCC5)[C@@]5(C(=O)Nc6cc(Cl)ccc65)[C@H]4c4cccc(Cl)c4F)CC3)cc21 (stereo partly shown) [I-138]
< 50 nM | Cn1c(=O)n(C2CCC(=O)NC2=O)c2cccc(CN3CCC(OC4CCN(Cc5ccc(NC(=O)[C@@H]6NC7(CCCCC7)[C@@]7(C(=O)Nc8cc(Cl)ccc87)[C@H]6c6cccc(Cl)c6F)cc5)CC4)CC3)c21 (stereo partly shown) [I-139]
500 to 1000 nM | Cn1c(=O)n(C2CCC(=O)NC2=O)c2cccc(C#CC3CCN(C[C@H]4CC[C@H](CNC(=O)[C@@H]5NC6(CCCCC6)[C@@]6(C(=O)Nc7cc(Cl)ccc76)[C@H]5c5cccc(Cl)c5F)CC4)CC3)c21 (stereo partly shown) [I-140]
> 1000 nM | Cn1c(=O)n(C2CCC(=O)NC2=O)c2cccc(CCCN3CCN(CCCNC(=O)[C@@H]4NC5(CCCCC5)[C@@]5(C(=O)Nc6cc(Cl)ccc65)[C@H]4c4cccc(Cl)c4F)CC3)c21 (stereo partly shown) [I-141]
50 to 100 nM | O=C1CCN(c2cncc3cc(C#CC4CCN(C[C@H]5CC[C@H](NC(=O)[C@@H]6NC7(CCCCC7)[C@@]7(C(=O)Nc8cc(Cl)ccc87)[C@H]6c6cccc(Cl)c6F)CC5)CC4)ccc23)C(=O)N1 [I-142]
< 50 nM | O=C1CCC(N2Cc3c(C#CC4CCN(C(=O)C56CCC(NC(=O)[C@@H]7NC8(CCCCC8)[C@@]8(C(=O)Nc9cc(Cl)ccc98)[C@H]7c7cccc(Cl)c7F)(CC5)CC6)CC4)cccc3C2=O)C(=O)N1 (stereo partly shown) [I-143]
50 to 100 nM | O=C1CCN(c2cnc3cc(C4CCN(C(=O)c5ccc(NC(=O)[C@@H]6NC7(CCCCC7)[C@@]7(C(=O)Nc8cc(Cl)ccc87)[C@H]6c6cccc(Cl)c6F)cc5)CC4)ccn23)C(=O)N1 [I-144]
